Tests used:
cucumber seedlings = experiment: Safety for plant growth after application; type: in vivo; details: dosage 200 ppm
Procedure, shortened: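 Potted cucumber seedlings grown indoors; read-outs: plant-height growth rate, chlorophyll content, leaf area.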

[1] = tested on: soft rot in Chinese cabbages; experiment: whole plant or invertebrate; details: 48 h, read-out: efficacy against soft rot in Chinese cabbages
[2] = tested on: pathogenic bacteria causing black shank in potatoes; experiment: In vitro bactericidal activity, black shank in potatoes; type: cell-based; details: read-out: inhibitory rate; for inhibition at 1 ppm: dosage 1 ppm; for inhibition at 5 ppm: dosage 5 ppm
[3] = tested on: pathogenic bacteria causing bacterial wilt in cassava; experiment: organism not typed; type: cell-based; details: read-out: inhibitory rate
[4] = tested on: stem rot in sweet potatoes; experiment: whole plant or invertebrate; details: read-out: efficacy against stem rot in sweet potatoes
[5] = tested on: pathogenic bacteria causing fruit blotch in watermelons; experiment: In vitro bactericidal activity, fruit blotch in watermelons; type: cell-based, acidovorax; details: read-out: inhibitory rate; for inhibition at 1 ppm: dosage 1 ppm; for inhibition at 5 ppm: dosage 5 ppm
[6] = tested on: pathogenic bacteria causing stem rot in sweet potatoes; experiment: In vitro bactericidal activity, stem rot in sweet potatoes; type: cell-based, dikia; details: read-out: inhibitory rate; for inhibition at 1 ppm: dosage 1 ppm; for inhibition at 5 ppm: dosage 5 ppm
[7] = tested on: pathogenic bacteria causing black rot in Chinese cabbages; experiment: In vitro bactericidal activity, black rot in Chinese cabbages; type: cell-based, xanthomonas; details: Xanthomonas, read-out: inhibitory rate; for inhibition at 1 ppm: dosage 1 ppm; for inhibition at 5 ppm: dosage 5 ppm
bacterial blight in rice = experiment: whole plant or invertebrate; details: Oryza sativa, read-out: efficacy against bacterial blight in rice
[8] = tested on: pathogenic bacteria causing bacterial angular leaf spot in cucumbers; experiment: In vitro bactericidal activity, bacterial angular leaf spot in cucumbers; type: cell-based, pseudomonas; details: read-out: inhibitory rate; for inhibition at 1 ppm: dosage 1 ppm; for inhibition at 5 ppm: dosage 5 ppm
black shank in potatoes = experiment: Living crops in vivo protective activity, potatoes (root irrigation); details: Solanum tuberosum, read-out: efficacy against black shank in potatoes; for pest or weed control at 5 ppm: dosage 5 ppm; for pest or weed control at 10 ppm: dosage 10 ppm
Description: Root irrigation was carried out on the potatoes for tests according to the designed concentration of the agents. The dosage for each plant was 200 mL and was kept consistent (also for the control). The black shank bacteria were inoculated on the second day after the application. The results were investigated according to the disease condition.

[9] = tested on: bacterial wilt in tobacco; experiment: whole plant or invertebrate; details: Nicotiana tabacum, read-out: efficacy against bacterial wilt in tobacco
[10] = tested on: pathogenic bacteria causing bacterial blight in rice; experiment: whole plant or invertebrate; type: cell-based, xanthomonas; details: read-out: inhibitory rate
[11] = tested on: pathogenic bacteria causing fire blight in pears; experiment: In vitro bactericidal activity, fire blight in pears; type: cell-based, erwinia; details: Erwinia, read-out: inhibitory rate; for inhibition at 1 ppm: dosage 1 ppm; for inhibition at 5 ppm: dosage 5 ppm
[12] = tested on: pathogenic bacteria causing bacterial wilt in tobacco; experiment: whole plant or invertebrate; type: cell-based, ralstonia; details: read-out: inhibitory rate
[13] = tested on: indoor potted cucumber seedlings; experiment: Effect of improving growth and development of crops; type: in vivo; set-up: Rate of growth rate increase (%): concentration or dose not given beside the values; details: versus blank control; for Rate of chlorophyll content increase (%) / Rate of leaf area increase (%): 14 days after application; for Rate of growth rate increase (%): plant height 14 days after application; for Rate of leaf area increase (%): second leaf
Description: Taking indoor potted cucumber seedlings as an example, the influence of the compound disclosed herein on growth rate of plant height, chlorophyll content, leaf area, etc. of crops was mainly evaluated.
The plant heights of plants before application and 14 days after the application were measured.
The growth rates were calculated according to formula (1)
The rates of the growth rate increase (%) were calculated according to formula (2)
The longitudinal and transverse diameters (i.e., leaf length and leaf width, respectively, wherein the leaf length is the distance from the base to the tip of a leaf, and leaf width is the measured value of the upper shoulder width of the leaf) of the second leaf of plants before application and 14 days after the application were measured.
The leaf areas were calculated according to formula (3)
The leaf area increases were calculated according to formula (4)
The rates of the leaf area increases were calculated according to formula (5)
The chlorophyll contents of leaves were measured by using a chlorophyll measuring instrument (model: SPAD-520 Plus).
The chlorophyll content increases were calculated according to formula (6)
The rates of the chlorophyll content increases were calculated according to formula (7)

[14] = tested on: fruit blotch in watermelons; experiment: whole plant or invertebrate; details: read-out: efficacy against fruit blotch in watermelons

CNc1cc2c(cc1F)c(=O)c(C(=O)OCCOC)cn2C1CC1 [Compound 401]
safety for plant growth (discoloration, necrosis, wilt, malformation) (cucumber seedlings): safe for plant growth | pest or weed control at 5 ppm [1]: ≥ 90% | pest or weed control at 10 ppm [1]: ≥ 90% | inhibition at 1 ppm [2]: ≥ 90% | inhibition at 5 ppm [2]: ≥ 90% | inhibition at 1 ppm [3]: ≥ 90% | inhibition at 5 ppm [3]: ≥ 90% | pest or weed control at 5 ppm [4]: ≥ 90% | pest or weed control at 10 ppm [4]: ≥ 90% | inhibition at 1 ppm [5]: ≥ 90% | inhibition at 5 ppm [5]: ≥ 90% | inhibition at 1 ppm [6]: ≥ 90% | inhibition at 5 ppm [6]: ≥ 90% | inhibition at 1 ppm [7]: ≥ 90% | inhibition at 5 ppm [7]: ≥ 90% | pest or weed control at 5 ppm (bacterial blight in rice): ≥ 90% | pest or weed control at 10 ppm (bacterial blight in rice): ≥ 90% | inhibition at 1 ppm [8]: ≥ 90% | inhibition at 5 ppm [8]: ≥ 90% | pest or weed control at 5 ppm (black shank in potatoes): ≥ 90% | pest or weed control at 10 ppm (black shank in potatoes): ≥ 90% | pest or weed control at 5 ppm [9]: ≥ 90% | pest or weed control at 10 ppm [9]: ≥ 90% | inhibition at 1 ppm [10]: ≥ 90% | inhibition at 5 ppm [10]: ≥ 90% | inhibition at 1 ppm [11]: ≥ 90% | inhibition at 5 ppm [11]: ≥ 90% | inhibition at 1 ppm [12]: ≥ 90% | inhibition at 5 ppm [12]: ≥ 90% | Rate of chlorophyll content increase (%) [13]: 13% | Rate of growth rate increase (%) [13]: 10% | Rate of leaf area increase (%) [13]: 10% | pest or weed control at 5 ppm [14]: ≥ 90% | pest or weed control at 10 ppm [14]: ≥ 90%

COCCCOC(=O)c1cn(C2CC2)c2cc(Cl)c(F)cc2c1=O [Compound 165, 3-methoxypropyl 7-chloro-1-cyclopropyl-6-fluoro-4-oxo-1,4-dihydroquinoline-3-carboxylate]
safety for plant growth (discoloration, necrosis, wilt, malformation) (cucumber seedlings): safe for plant growth | pest or weed control at 5 ppm [1]: ≥ 90% | pest or weed control at 10 ppm [1]: ≥ 90% | inhibition at 1 ppm [2]: ≥ 90% | inhibition at 5 ppm [2]: ≥ 90% | inhibition at 1 ppm [3]: ≥ 90% | inhibition at 5 ppm [3]: ≥ 90% | pest or weed control at 5 ppm [4]: ≥ 90% | pest or weed control at 10 ppm [4]: ≥ 90% | inhibition at 1 ppm [5]: ≥ 90% | inhibition at 5 ppm [5]: ≥ 90% | inhibition at 1 ppm [6]: ≥ 90% | inhibition at 5 ppm [6]: ≥ 90% | inhibition at 1 ppm [7]: ≥ 90% | inhibition at 5 ppm [7]: ≥ 90% | pest or weed control at 5 ppm (bacterial blight in rice): ≥ 90% | pest or weed control at 10 ppm (bacterial blight in rice): ≥ 90% | inhibition at 1 ppm [8]: ≥ 90% | inhibition at 5 ppm [8]: ≥ 90% | pest or weed control at 5 ppm (black shank in potatoes): ≥ 90% | pest or weed control at 10 ppm (black shank in potatoes): ≥ 90% | pest or weed control at 5 ppm [9]: ≥ 90% | pest or weed control at 10 ppm [9]: ≥ 90% | inhibition at 1 ppm [10]: ≥ 90% | inhibition at 5 ppm [10]: ≥ 90% | inhibition at 1 ppm [11]: ≥ 90% | inhibition at 5 ppm [11]: ≥ 90% | inhibition at 1 ppm [12]: ≥ 90% | inhibition at 5 ppm [12]: ≥ 90% | Rate of chlorophyll content increase (%) [13]: 16% | Rate of growth rate increase (%) [13]: 12% | Rate of leaf area increase (%) [13]: 17% | pest or weed control at 5 ppm [14]: ≥ 90% | pest or weed control at 10 ppm [14]: ≥ 90%

CCOc1cc2c(cc1F)c(=O)c(C(=O)OCCCO)cn2C1CC1 [Compound 309]
safety for plant growth (discoloration, necrosis, wilt, malformation) (cucumber seedlings): safe for plant growth | pest or weed control at 5 ppm [1]: ≥ 90% | pest or weed control at 10 ppm [1]: ≥ 90% | inhibition at 1 ppm [2]: ≥ 90% | inhibition at 5 ppm [2]: ≥ 90% | inhibition at 1 ppm [3]: ≥ 90% | inhibition at 5 ppm [3]: ≥ 90% | pest or weed control at 5 ppm [4]: ≥ 90% | pest or weed control at 10 ppm [4]: ≥ 90% | inhibition at 1 ppm [5]: ≥ 90% | inhibition at 5 ppm [5]: ≥ 90% | inhibition at 1 ppm [6]: ≥ 90% | inhibition at 5 ppm [6]: ≥ 90% | inhibition at 1 ppm [7]: ≥ 90% | inhibition at 5 ppm [7]: ≥ 90% | pest or weed control at 5 ppm (bacterial blight in rice): ≥ 90% | pest or weed control at 10 ppm (bacterial blight in rice): ≥ 90% | inhibition at 1 ppm [8]: ≥ 90% | inhibition at 5 ppm [8]: ≥ 90% | pest or weed control at 5 ppm (black shank in potatoes): ≥ 90% | pest or weed control at 10 ppm (black shank in potatoes): ≥ 90% | pest or weed control at 5 ppm [9]: ≥ 90% | pest or weed control at 10 ppm [9]: ≥ 90% | inhibition at 1 ppm [10]: ≥ 90% | inhibition at 5 ppm [10]: ≥ 90% | inhibition at 1 ppm [11]: ≥ 90% | inhibition at 5 ppm [11]: ≥ 90% | inhibition at 1 ppm [12]: ≥ 90% | inhibition at 5 ppm [12]: ≥ 90% | Rate of chlorophyll content increase (%) [13]: 16% | Rate of growth rate increase (%) [13]: 12% | Rate of leaf area increase (%) [13]: 15% | pest or weed control at 5 ppm [14]: ≥ 90% | pest or weed control at 10 ppm [14]: ≥ 90%

CCNc1cc2c(cc1F)c(=O)c(C(=O)OCCOC)cn2C1CC1 [Compound 408]
safety for plant growth (discoloration, necrosis, wilt, malformation) (cucumber seedlings): safe for plant growth | pest or weed control at 5 ppm [1]: ≥ 90% | pest or weed control at 10 ppm [1]: ≥ 90% | inhibition at 1 ppm [2]: ≥ 90% | inhibition at 5 ppm [2]: ≥ 90% | inhibition at 1 ppm [3]: ≥ 90% | inhibition at 5 ppm [3]: ≥ 90% | pest or weed control at 5 ppm [4]: ≥ 90% | pest or weed control at 10 ppm [4]: ≥ 90% | inhibition at 1 ppm [5]: ≥ 90% | inhibition at 5 ppm [5]: ≥ 90% | inhibition at 1 ppm [6]: ≥ 90% | inhibition at 5 ppm [6]: ≥ 90% | inhibition at 1 ppm [7]: ≥ 90% | inhibition at 5 ppm [7]: ≥ 90% | pest or weed control at 5 ppm (bacterial blight in rice): ≥ 90% | pest or weed control at 10 ppm (bacterial blight in rice): ≥ 90% | inhibition at 1 ppm [8]: ≥ 90% | inhibition at 5 ppm [8]: ≥ 90% | pest or weed control at 5 ppm (black shank in potatoes): ≥ 90% | pest or weed control at 10 ppm (black shank in potatoes): ≥ 90% | pest or weed control at 5 ppm [9]: ≥ 90% | pest or weed control at 10 ppm [9]: ≥ 90% | inhibition at 1 ppm [10]: ≥ 90% | inhibition at 5 ppm [10]: ≥ 90% | inhibition at 1 ppm [11]: ≥ 90% | inhibition at 5 ppm [11]: ≥ 90% | inhibition at 1 ppm [12]: ≥ 90% | inhibition at 5 ppm [12]: ≥ 90% | Rate of chlorophyll content increase (%) [13]: 18% | Rate of growth rate increase (%) [13]: 12% | Rate of leaf area increase (%) [13]: 12% | pest or weed control at 5 ppm [14]: ≥ 90% | pest or weed control at 10 ppm [14]: ≥ 90%

Source: patent US20250313533A1, “QUINOLINE CARBOXYLIC ACID ESTER COMPOUND AND PREPARATION METHOD AND USE THEREOF” (priority 2019, published 2025)
